Source: patent publication US20100035934A1, “PYRIDINYL-PYRAZOLE DERIVATIVES AND THEIR USE AS POTASSIUM CHANNEL MODULATORS” (NeuroSearch A/S, priority 2007, published 2010)

The compounds below were run against T1, hSK3 channels (Homo sapiens, UniProt Q9UGI6) (assay: Whole-cell patch-clamp recording of ionic current through SK channels (subtype 3) in HEK293 cells expressing hSK3). Settings: baseline current at -75 mV, free Ca2+ 0.3-0.4 μM, room temperature.
T1 construct: expressed in transfected cells; host or cells: HEK293
Format: cell-based
Method: The ionic current through small-conductance Ca^2+-activated K^+ channels (SK channels, subtype 3) is recorded using the whole-cell configuration of the patch-clamp technique.
HEK293 tissue culture cells expressing hSK3 channels were grown in DMEM (Dulbecco's Modified Eagle Medium) supplemented with 10% FCS (foetal calf serum) at 37° C. in 5% CO2. At 60-80% confluency, cells were harvested by trypsin treatment and seeded on cover slips.
Experiments are carried out on one of several patch-clamp set-ups. Cells plated on coverslips are placed in a 15 μl perfusion chamber (flowrate ˜1 ml/min) mounted on an IMT-2 microscope. The microscopes are placed on vibration-free tables in grounded Faraday cages. All experiments are performed at room temperature (20-22° C.). EPC-9 patch-clamp amplifiers (HEKA-electronics, Lambrect, Germany) are connected to Macintosh computers via ITC16 interfaces. Data are stored directly on the hard-disk and analysed by IGOR software (Wavemetrics, Lake Oswega, Oreg., USA).
The whole-cell configuration of the patch-clamp technique is applied. In short: The tip of a borosilicate pipette (resistance 2-4 MΩ) is gently placed on the cell membrane using remote control systems. Light suction results in the formation of a giga seal (pipette resistance increases to more than […]) and the cell membrane underneath the pipette is then ruptured by more powerful suction. Cell capacitance is electronically compensated and the resistance between the pipette and the cell interior (the series resistance, Rs) is measured and compensated for. Usually the cell capacitance ranges from 5 to 20 pF (depending on cell size) and the series resistance is in the range 3 to 6 MΩ. Rs—as well as capacitance compensation are updated during the experiments (before each stimulus). All experiments with drifting Rs-values are discharged. Leak-subtractions are not performed.
The extracellular (bath) solution contains (in mM): 154 mM KCl, 0.1 CaCl2, 3 MgCl2, 10 HEPES (pH=7.4 with HCl). The test compound was dissolved 1000 times in DMSO from a concentrated stock solution and then diluted in the extracellular solution.
The intracellular (pipette) solution contained: 154 mM KCl, 10 mM HEPES, 10 mM EGTA. Concentrations of CaCl2 and MgCl2 needed to obtain the desired free concentrations of Ca^2+ (0.3-0.4 μM, Mg^2+ always 1 mM) were calculated by EqCal software (Cambridge, UK) and added.
After establishment of the whole-cell configuration, voltage-ramps (normally −80 to +80 mV) are applied to the cell every 5 seconds from a holding potential of 0 mV. […] Active compounds are quantified by calculating the change in baseline current at −75 mV. […]

Structure (SMILES) | The SC100 (Stimulating Concentration required for increasing the baseline current by 100%) [µM]
Cc1cc(C)n(-c2cccc(Nc3ccc(Cl)cc3)n2)n1 [Compound A1, (4-Chloro-phenyl)-[6-(3,5-dimethyl-pyrazol-1-yl)-pyridin-2-yl]-amine] | 0.03
Clc1ccc(Nc2cccc(-n3cccn3)n2)c(Cl)c1 [Compound A8, (2,4-Dichloro-phenyl)-(6-pyrazol-1-yl-pyridin-2-yl)-amine] | 0.3
Cc1cc(C)n(-c2cccc(Nc3ccc(F)c(F)c3)n2)n1 [Compound C4, (3,4-Difluoro-phenyl)-[6-(3,5-dimethyl-pyrazol-1-yl)-pyridin-2-yl]-amine] | 0.4
CNc1cc(-n2nc(C)cc2C)nc(Nc2ccc(Cl)cc2)c1N [Compound D1, 3-Amino-2-(4-chlorophenylamino)-6-(3,5-dimethylpyrazol-1-yl)-4-methylamino-pyridine] | 0.1
